# Test results from paper PMC9516332 (Frontiers in Oncology, 2022).
# Read-outs that look alike come from different tables or passages of the source.
# Tests used:
# Experiment in all cases: Kinase panel profiling at 1 µmol/L (MSA or IMAP), percentage inhibition
# Format in all cases: biochemical
# [1] = target: T1, panel of 255 wild-type kinases (Homo sapiens, UniProt O15530); conditions: read-out: %-inhibition at 1 µmol/L, PDK1
# T1 sequence (O15530 1-556): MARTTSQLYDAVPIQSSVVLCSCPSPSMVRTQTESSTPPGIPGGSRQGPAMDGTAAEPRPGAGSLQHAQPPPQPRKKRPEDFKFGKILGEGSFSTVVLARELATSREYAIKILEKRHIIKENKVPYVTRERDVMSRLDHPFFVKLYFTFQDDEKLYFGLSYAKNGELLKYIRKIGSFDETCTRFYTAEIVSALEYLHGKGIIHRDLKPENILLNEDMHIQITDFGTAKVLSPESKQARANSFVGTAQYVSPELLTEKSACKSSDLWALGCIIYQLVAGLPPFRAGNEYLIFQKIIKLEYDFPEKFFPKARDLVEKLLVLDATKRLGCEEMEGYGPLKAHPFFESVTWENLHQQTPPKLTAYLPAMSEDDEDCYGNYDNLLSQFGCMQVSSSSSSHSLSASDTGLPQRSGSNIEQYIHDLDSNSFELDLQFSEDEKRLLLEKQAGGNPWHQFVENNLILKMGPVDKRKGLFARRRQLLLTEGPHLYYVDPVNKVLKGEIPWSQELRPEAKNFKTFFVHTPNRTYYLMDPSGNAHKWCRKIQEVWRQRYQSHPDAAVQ
# [2] = target: panel of 255 wild-type kinases (Homo sapiens, UniProt P05771); conditions: read-out: %-inhibition at 1 µmol/L, PKCβ1
# [3] = target: panel of 255 wild-type kinases (Homo sapiens, UniProt P24941)
# [4] = target: panel of 255 wild-type kinases (Homo sapiens, UniProt P42684); conditions: read-out: %-inhibition ARG
# [5] = target: panel of 255 wild-type kinases (Homo sapiens, UniProt Q14012); conditions: read-out: %-inhibition CaMK1α
# [6] = target: panel of 255 wild-type kinases (Homo sapiens, UniProt Q9BYP7); conditions: read-out: %-inhibition at 1 µmol/L, WNK3
# [7] = target: T2, panel of 255 wild-type kinases (Homo sapiens, UniProt Q9NZJ5); conditions: read-out: %-inhibition at 1 µmol/L, PEK
# T2 sequence (Q9NZJ5 30-1116): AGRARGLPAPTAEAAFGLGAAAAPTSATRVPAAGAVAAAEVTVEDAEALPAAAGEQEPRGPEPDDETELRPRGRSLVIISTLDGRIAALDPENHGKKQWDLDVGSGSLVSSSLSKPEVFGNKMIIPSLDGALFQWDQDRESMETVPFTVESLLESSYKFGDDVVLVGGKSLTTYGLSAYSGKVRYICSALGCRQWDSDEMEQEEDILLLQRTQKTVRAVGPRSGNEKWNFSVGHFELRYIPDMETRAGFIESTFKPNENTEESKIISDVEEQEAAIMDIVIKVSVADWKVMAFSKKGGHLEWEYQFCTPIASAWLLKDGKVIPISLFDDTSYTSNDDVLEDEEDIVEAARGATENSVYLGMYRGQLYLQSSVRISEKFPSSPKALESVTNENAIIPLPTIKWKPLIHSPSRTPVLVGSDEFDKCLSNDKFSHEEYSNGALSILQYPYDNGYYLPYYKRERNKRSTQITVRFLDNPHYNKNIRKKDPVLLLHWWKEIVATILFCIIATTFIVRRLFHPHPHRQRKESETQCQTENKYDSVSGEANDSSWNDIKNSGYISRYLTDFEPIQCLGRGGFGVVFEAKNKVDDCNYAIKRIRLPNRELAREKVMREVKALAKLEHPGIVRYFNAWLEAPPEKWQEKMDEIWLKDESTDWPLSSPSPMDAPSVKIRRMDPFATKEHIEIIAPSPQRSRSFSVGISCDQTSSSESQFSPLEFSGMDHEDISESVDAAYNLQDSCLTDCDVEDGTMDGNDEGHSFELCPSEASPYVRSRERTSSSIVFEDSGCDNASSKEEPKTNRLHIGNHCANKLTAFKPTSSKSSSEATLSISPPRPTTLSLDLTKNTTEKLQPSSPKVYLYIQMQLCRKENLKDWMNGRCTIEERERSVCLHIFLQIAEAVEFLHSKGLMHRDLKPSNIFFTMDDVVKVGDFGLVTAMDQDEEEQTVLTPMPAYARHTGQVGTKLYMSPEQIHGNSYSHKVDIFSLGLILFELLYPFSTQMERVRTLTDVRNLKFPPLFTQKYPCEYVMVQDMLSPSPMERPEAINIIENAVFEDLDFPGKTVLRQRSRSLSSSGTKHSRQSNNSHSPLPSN
# [8] = kinase PDK1, 1 µmol/L single concentration
# [9] = kinase PKCβ1, 1 µmol/L single concentration
# [10] = CDK2/CycA2 kinase assay, 1 µmol/L single concentration, read-out: %-inhibition CDK2/CycA2
# [11] = CDK2/CycE1 kinase assay, 1 µmol/L single concentration, read-out: %-inhibition CDK2/CycE1
# [12] = ARG kinase assay, 1 µmol/L single concentration
# [13] = CaMK1α kinase assay, 1 µmol/L single concentration
# [14] = kinase WNK3, 1 µmol/L single concentration
# [15] = kinase PEK, 1 µmol/L single concentration
"inhibition at 1 µM [1, 8] [%]","inhibition at 1 µM [2, 9] [%]","inhibition at 1 µM [3, 10] [%]","inhibition at 1 µM [3, 11] [%]","inhibition at 1 µM [4, 12] [%]","inhibition at 1 µM [5, 13] [%]","inhibition at 1 µM [6, 14] [%]","inhibition at 1 µM [7, 15] [%]",SMILES,inhibition at 1 µM [1] [%],inhibition at 1 µM [2] [%],inhibition at 1 µM ([3]; read-out: %-inhibition CDK2/CycA2) [%],inhibition at 1 µM ([3]; read-out: %-inhibition CDK2/CycE1) [%],inhibition at 1 µM [4] [%],inhibition at 1 µM [5] [%],inhibition at 1 µM [6] [%],inhibition at 1 µM [7] [%]
2.11,2.44,1.44,-55,1.6,-4.36,-1.43,-0.188,Cn1cnc2c(F)c(Nc3ccc(Br)cc3Cl)c(C(=O)NOCCO)cc21 [selumetinib],,,,,,,,
7,-0.445,0.89,-15,10,-5.55,-1.49,2.16,COc1ccc(CN2C3CC2CN(c2ccc(-c4cc(OCC(C)(C)O)cn5ncc(C#N)c45)cn2)C3)cn1 [selpercatinib],,,,,,,,
2.15,-2.11,-2.44,-18,-0.835,-1.63,-0.6,4,O=C(Nc1cnn2ccc(N3CCC[C@@H]3c3cc(F)ccc3F)nc12)N1CC[C@H](O)C1 [larotrectinib],,,,,,,,
,,,,,,,,CNC(=O)c1ccc(-c2cnc3ncc(Cc4ccc5ncccc5c4)n3n2)cc1F [capmatinib],4,1.2,1.63,-47,3.29,-9,-1.77,4.25
2.42,5,-0.854,-11,0.877,-5.33,-0.718,5.65,C[C@H](Nc1ncnc2nc[nH]c12)c1cc2cccc(Cl)c2c(=O)n1-c1ccccc1 [duvelisib],,,,,,,,
9,2.58,66,58,38,-4.72,0.505,2.26,CO[C@]1(C(=O)N[C@@H](C)c2ccc(-n3cc(F)cn3)nc2)CC[C@H](c2nc(C)cc(Nc3cc(C)[nH]n3)n2)CC1 [pralsetinib],,,,,,,,
3,0.869,-0.285,-36,3.73,-5.47,3,1.59,Cc1cc(Nc2ncnc3ccc(NC4=NC(C)(C)CO4)cc23)ccc1Oc1ccn2ncnc2c1 [tucatinib],,,,,,,,
0.386,-3.39,2.3,-14,1.39,-5,-2.67,4.67,Cn1cnc2c(F)c(Nc3ccc(Br)cc3F)c(C(=O)NOCCO)cc21 [binimetinib],,,,,,,,
-0.422,7,-2.39,-10,3.28,-10,-3,10,Cc1nc(NC(=O)N2CCC[C@H]2C(N)=O)sc1-c1ccnc(C(C)(C)C(F)(F)F)c1 [alpelisib],,,,,,,,
-7,3.74,-13,-16,40,-7,-2.62,2.82,COc1cc2ncnc(Nc3ccc(F)c(Cl)c3)c2cc1NC(=O)/C=C/CN1CCCCC1 [dacomitinib],,,,,,,,

SMILES,"inhibition at 1 µM [1, 8] [%]","inhibition at 1 µM [2, 9] [%]","inhibition at 1 µM [3, 10] [%]","inhibition at 1 µM [3, 11] [%]","inhibition at 1 µM [4, 12] [%]","inhibition at 1 µM [5, 13] [%]","inhibition at 1 µM [6, 14] [%]","inhibition at 1 µM [7, 15] [%]",inhibition at 1 µM [1] [%],inhibition at 1 µM [2] [%],inhibition at 1 µM ([3]; read-out: %-inhibition CDK2/CycA2) [%],inhibition at 1 µM ([3]; read-out: %-inhibition CDK2/CycE1) [%],inhibition at 1 µM [4] [%],inhibition at 1 µM [5] [%],inhibition at 1 µM [6] [%],inhibition at 1 µM [7] [%]
CCN1C(=O)N(c2c(F)c(OC)cc(OC)c2F)Cc2cnc3[nH]c(CN4CCOCC4)cc3c21 [pemigatinib],0.293,0.544,3.55,7,7,12,-0.586,17,,,,,,,,
FC(F)(F)c1ccc(CNc2ccc(Cc3c[nH]c4ncc(Cl)cc34)cn2)cn1 [pexidartinib],-4.67,4.22,12,-4,7,-13,0.624,-10,,,,,,,,
C=CC(=O)N1CCC([C@@H]2CCNc3c(C(N)=O)c(-c4ccc(Oc5ccccc5)cc4)nn32)CC1 [zanubrutinib],0.547,0.363,-2.82,-15,-3.68,-0.157,5.7,2,,,,,,,,
C[C@H]1Oc2cc(cnc2N)-c2c(nn(C)c2C#N)CN(C)C(=O)c2ccc(F)cc21 [lorlatinib],0.602,7,1.87,-6.33,1.49,1.49,6,-1.65,,,,,,,,
CCN1CCN(c2ccc(Nc3cc(N(C)C(=O)Nc4c(Cl)c(OC)cc(OC)c4Cl)ncn3)cc2)CC1 [infigratinib],1.36,5,11,-33,24,-22,1.62,49,,,,,,,,
COC(=O)N[C@@H](C)CNc1nccc(-c2cn(C(C)C)nc2-c2cc(Cl)cc(NS(C)(=O)=O)c2F)n1 [encorafenib],-2.17,-1,5.57,-9,1.69,2.72,-1.55,9,,,,,,,,
CCc1nc(C(N)=O)c(Nc2ccc(N3CCC(N4CCN(C)CC4)CC3)c(OC)c2)nc1NC1CCOCC1 [gilteritinib],-1.87,19,27,17,61,41,5,,,,,,,,,
CN1CCN(c2ccc(C(=O)Nc3n[nH]c4ccc(Cc5cc(F)cc(F)c5)cc34)c(NC3CCOCC3)c2)CC1 [entrectinib],0.207,12,20,11,83,-5.68,8.51,0.561,,,,,,,,
